Data on 13 molecules can be found in US11739098B2 (BRISTOL-MYERS SQUIBB COMPANY, priority 2017, dated 2023).

One may read the IC50 as the concentration that gives 50% inhibition. Higher therefore signals weaker potency.

Assay type in all cases: cell-based
One assay deals with T1, human TLR7 (Homo sapiens, UniProt Q9NYK1).
T1 construct: host or cells: HEK-Blue cells (HEK293-derived reporter line)
T1 sequence (Q9NYK1 27-1049): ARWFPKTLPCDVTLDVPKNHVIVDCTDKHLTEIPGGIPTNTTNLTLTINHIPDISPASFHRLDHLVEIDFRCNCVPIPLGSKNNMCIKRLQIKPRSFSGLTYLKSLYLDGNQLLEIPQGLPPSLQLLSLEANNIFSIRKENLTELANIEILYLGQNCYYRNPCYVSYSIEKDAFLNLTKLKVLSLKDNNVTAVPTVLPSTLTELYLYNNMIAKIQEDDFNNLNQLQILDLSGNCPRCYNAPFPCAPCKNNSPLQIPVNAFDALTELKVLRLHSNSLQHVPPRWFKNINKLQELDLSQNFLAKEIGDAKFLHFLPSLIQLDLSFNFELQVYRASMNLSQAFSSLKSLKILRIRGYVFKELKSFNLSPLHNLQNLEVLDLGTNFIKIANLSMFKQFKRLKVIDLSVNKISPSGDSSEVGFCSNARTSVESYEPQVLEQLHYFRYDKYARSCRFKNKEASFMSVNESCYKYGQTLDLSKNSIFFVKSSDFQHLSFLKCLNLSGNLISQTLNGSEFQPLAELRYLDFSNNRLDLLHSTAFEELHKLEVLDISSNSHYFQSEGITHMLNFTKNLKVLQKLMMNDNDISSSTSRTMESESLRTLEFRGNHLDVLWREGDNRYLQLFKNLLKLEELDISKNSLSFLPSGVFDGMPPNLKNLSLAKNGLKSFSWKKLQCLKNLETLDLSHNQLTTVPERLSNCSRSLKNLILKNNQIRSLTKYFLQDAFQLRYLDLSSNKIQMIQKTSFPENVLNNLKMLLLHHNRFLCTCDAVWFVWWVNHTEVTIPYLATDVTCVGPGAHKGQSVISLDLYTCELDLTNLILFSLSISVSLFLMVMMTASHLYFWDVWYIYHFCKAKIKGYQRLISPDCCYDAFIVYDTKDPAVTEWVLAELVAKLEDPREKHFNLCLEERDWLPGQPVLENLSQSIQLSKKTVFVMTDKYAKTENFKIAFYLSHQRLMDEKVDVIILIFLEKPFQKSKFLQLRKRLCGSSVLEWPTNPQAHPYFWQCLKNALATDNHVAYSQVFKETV
Put plainly: TLR7 inhibition reporter assay (HEK-Blue cells, SEAP reporter, gardiquimod stimulation). The settings on record: HEK-Blue cells overexpressing human TLR7, SEAP reporter, gardiquimod 7.5 μM. The method in brief: (§1)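 After 22 h at 37 °C, SEAP secretion was measured from human TLR7-, TLR8- or TLR9-expressing HEK-Blue reporter cells given compound (0.05 nM–50 μM) 30 min before agonist: 7.5 μM gardiquimod, 15.9 μM R848 or 5 nM ODN2006 respectively. Percent inhibition referenced to agonist-plus-DMSO and known-inhibitor wells.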

The target in another assay is T2, human TLR8 (Homo sapiens, UniProt Q9NR97).
T2 construct: host or cells: HEK-Blue cells (HEK293-derived reporter line)
T2 sequence (Q9NR97 27-1041): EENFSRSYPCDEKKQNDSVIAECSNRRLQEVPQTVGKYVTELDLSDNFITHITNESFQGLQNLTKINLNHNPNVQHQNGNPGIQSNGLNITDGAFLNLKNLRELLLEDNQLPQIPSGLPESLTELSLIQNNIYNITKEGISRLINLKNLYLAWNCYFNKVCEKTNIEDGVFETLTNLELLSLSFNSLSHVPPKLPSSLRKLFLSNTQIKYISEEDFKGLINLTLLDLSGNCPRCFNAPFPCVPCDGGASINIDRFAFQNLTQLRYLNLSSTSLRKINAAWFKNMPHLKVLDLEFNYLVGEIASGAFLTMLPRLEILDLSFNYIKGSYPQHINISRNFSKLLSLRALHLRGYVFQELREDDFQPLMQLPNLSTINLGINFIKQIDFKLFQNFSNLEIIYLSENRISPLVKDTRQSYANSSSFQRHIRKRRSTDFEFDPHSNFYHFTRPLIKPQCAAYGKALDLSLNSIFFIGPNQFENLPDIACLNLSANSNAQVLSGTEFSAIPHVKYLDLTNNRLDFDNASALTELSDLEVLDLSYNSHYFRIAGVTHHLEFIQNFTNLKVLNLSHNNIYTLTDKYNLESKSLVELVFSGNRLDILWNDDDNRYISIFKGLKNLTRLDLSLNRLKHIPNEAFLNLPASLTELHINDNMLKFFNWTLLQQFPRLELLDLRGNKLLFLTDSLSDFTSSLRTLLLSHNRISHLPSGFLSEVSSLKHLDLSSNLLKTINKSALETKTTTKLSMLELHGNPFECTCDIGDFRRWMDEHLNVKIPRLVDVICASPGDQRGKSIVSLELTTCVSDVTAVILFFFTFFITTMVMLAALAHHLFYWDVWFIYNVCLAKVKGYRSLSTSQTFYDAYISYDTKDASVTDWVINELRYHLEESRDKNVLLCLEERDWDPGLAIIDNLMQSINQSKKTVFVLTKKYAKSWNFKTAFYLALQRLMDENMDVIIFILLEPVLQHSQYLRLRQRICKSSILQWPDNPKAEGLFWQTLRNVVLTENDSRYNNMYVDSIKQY
Put plainly: TLR8 inhibition reporter assay (HEK-Blue cells, SEAP reporter, R848 stimulation). The settings on record: HEK-Blue cells overexpressing human TLR8, SEAP reporter, R848 15.9 μM. The gist of the method: as §1

The next assay has as its target T3, human TLR9 (Homo sapiens, UniProt Q9NR96).
T3 construct: host or cells: HEK-Blue cells (HEK293-derived reporter line)
T3 sequence (Q9NR96 26-1032): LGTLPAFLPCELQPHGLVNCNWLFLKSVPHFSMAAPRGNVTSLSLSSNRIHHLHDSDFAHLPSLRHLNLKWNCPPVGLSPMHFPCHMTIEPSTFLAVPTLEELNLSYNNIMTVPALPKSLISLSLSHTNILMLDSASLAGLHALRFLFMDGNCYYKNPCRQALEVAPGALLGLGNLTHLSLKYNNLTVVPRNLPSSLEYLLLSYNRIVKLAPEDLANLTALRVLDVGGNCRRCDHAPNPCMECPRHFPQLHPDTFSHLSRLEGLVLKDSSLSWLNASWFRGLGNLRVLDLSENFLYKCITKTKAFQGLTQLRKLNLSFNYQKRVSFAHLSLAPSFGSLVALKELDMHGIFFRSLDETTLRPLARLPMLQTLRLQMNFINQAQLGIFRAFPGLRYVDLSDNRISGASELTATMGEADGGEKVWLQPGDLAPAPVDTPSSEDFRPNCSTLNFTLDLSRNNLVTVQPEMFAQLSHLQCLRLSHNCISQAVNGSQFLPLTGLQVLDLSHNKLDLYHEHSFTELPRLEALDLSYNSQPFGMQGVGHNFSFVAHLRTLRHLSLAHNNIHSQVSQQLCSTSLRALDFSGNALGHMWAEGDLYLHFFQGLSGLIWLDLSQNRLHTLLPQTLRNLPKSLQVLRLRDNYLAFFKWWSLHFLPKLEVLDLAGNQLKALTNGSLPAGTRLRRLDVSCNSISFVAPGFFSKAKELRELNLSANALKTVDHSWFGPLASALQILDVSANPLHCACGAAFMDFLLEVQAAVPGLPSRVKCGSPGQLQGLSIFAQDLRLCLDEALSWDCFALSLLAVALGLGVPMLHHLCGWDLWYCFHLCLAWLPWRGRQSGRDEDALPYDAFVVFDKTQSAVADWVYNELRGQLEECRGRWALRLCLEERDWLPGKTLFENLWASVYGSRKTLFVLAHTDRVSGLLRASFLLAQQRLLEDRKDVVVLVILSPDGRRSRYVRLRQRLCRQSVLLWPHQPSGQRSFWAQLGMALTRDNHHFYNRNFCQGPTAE
Put plainly: TLR9 inhibition reporter assay (HEK-Blue cells, SEAP reporter, ODN2006 stimulation). The settings on record: HEK-Blue cells overexpressing human TLR9, SEAP reporter, ODN2006 5 nM. The gist of the method: as §1
Background: In a reporter assay the amount or activity of a reporter protein is the signal.

Turning to `COc1cc(-c2[nH]c3ccc(C4CCN(C5COC5)CC4)cc3c2C(C)C)cc2ncnn12` [Example 710, 7-(3-isopropyl-5-(1-(oxetan-3-yl)piperidin-4-yl)-1H-indol-2-yl)-5-methoxy-[1,2,4]triazolo[1,5-a]pyridine], the IC50 is under 0.1 µM at human TLR7, under 0.1 µM against human TLR8 and 1 to 50 µM against human TLR9.
Take `CC(C)c1c(-c2cc(Cl)cc3nccn23)[nH]c2ccc(C3CCNCC3)cc12` [Example 127, 7-chloro-5-(3-isopropyl-5-(piperidin-4-yl)-1H-indol-2-yl)imidazo[1,2-a]pyridine]: the IC50 is under 0.1 µM against human TLR7, under 0.1 µM at human TLR8 and 0.1 to 1 µM against human TLR9.
For `CC(C)c1c(-c2cnc3ccnn3c2)[nH]c2ccc(C3CCN(C4COC4)CC3)cc12` [Example 713, 6-(3-isopropyl-5-(1-(oxetan-3-yl)piperidin-4-yl)-1H-indol-2-yl)pyrazolo[1,5-a]pyrimidine], the values for the IC50 at human TLR7, on human TLR8 and at human TLR9 were over 3.13 µM, over 3.13 µM and 1 to 50 µM, respectively.
On to `CC(C)c1c(-c2cnc3cn[nH]c3c2)[nH]c2ccc(C3CCN(C(=O)CN(C)C)CC3)cc12` [Example 526, 2-(dimethylamino)-1-(4-(3-isopropyl-2-(1H-pyrazolo[4,3-b]pyridin-6-yl)-1H-indol-5-yl)piperidin-1-yl)ethan-1-one], for which the IC50 was under 0.1 µM on human TLR7, under 0.1 µM at human TLR8 and 1 to 50 µM at human TLR9.
In the case of `Cc1c(-c2[nH]c3ccc(C4CCN(C(=O)CN(C)C)CC4)cc3c2C(C)C)c2cccnc2n1C` [Example 459, 1-(4-(2-(1,2-dimethyl-1H-pyrrolo[2,3-b]pyridin-3-yl)-3-isopropyl-1H-indol-5-yl)piperidin-1-yl)-2-(dimethylamino)ethan-1-one], the half-inhibitory concentration (IC50) against human TLR7 was under 0.1 µM; against human TLR8, under 0.1 µM; against human TLR9, 1 to 50 µM.
On to `Cc1cc(-c2[nH]c3ccc(C4CCN(C5CCOCC5)CC4)cc3c2C(C)C)cc2cncn12` [Example 707, 7-(3-isopropyl-5-(1-(tetrahydro-2H-pyran-4-yl)piperidin-4-yl)-1H-indol-2-yl)-5-methylimidazo[1,5-a]pyridine], for which the values for the IC50 at human TLR7, on human TLR8 and on human TLR9 were under 0.1 µM, under 0.1 µM and 0.1 to 1 µM, respectively.
On to `CC(C)c1c(-c2cn3ccnc3cc2Cl)[nH]c2ccc(C3CCNCC3)cc12` [Example 128, 7-chloro-6-(3-isopropyl-5-(piperidin-4-yl)-1H-indol-2-yl)imidazo[1,2-a]pyridine], for which the half-inhibitory concentration (IC50) at human TLR7 was under 0.1 µM; at human TLR8, under 0.1 µM; at human TLR9 it was 1 to 50 µM.
As to `CC(C)c1c(-c2ccc3[nH]nnc3c2)[nH]c2ccc(C3CCNCC3)cc12` [Example 51, 5-(3-isopropyl-5-(piperidin-4-yl)-1H-indol-2-yl)-1H-benzo[d][1,2,3]triazole], the results for the IC50 against human TLR7, against human TLR8 and on human TLR9 were under 0.1 µM, under 0.1 µM and 0.1 to 1 µM, respectively.
For the molecule `Cc1cc(-c2[nH]c3ccc(C4CCN(C5CCOCC5)CC4)cc3c2C(C)C)cc2cccnc12` [Example 703, 6-(3-isopropyl-5-(1-(tetrahydro-2H-pyran-4-yl)piperidin-4-yl)-1H-indol-2-yl)-8-methylquinoline], the IC50 on human TLR7 is under 0.1 µM; against human TLR8, under 0.1 µM; at human TLR9 it was 1 to 50 µM.
Regarding `CN(C)C(=O)CN1CCC(c2ccc3[nH]c(-c4cc(F)c5nccn5c4)c(CC(F)F)c3c2)CC1` [Example 409, 2-(4-(3-(2,2-difluoroethyl)-2-(8-fluoroimidazo[1,2-a]pyridin-6-yl)-1H-indol-5-yl)piperidin-1-yl)-N,N-dimethylacetamide], the IC50 on human TLR7 is under 0.1 µM; at human TLR8, 0.1 to 1 µM; against human TLR9 it was 1 to 50 µM.
`CC(C)c1c(-c2ccnc3[nH]ncc23)[nH]c2ccc(C3CCN(Cc4cn5ccccc5n4)CC3)cc12` [Example 862, 4-(5-(1-(imidazo[1,2-a]pyridin-2-ylmethyl)piperidin-4-yl)-3-isopropyl-1H-indol-2-yl)-1H-pyrazolo[3,4-b]pyridine]: the IC50 on human TLR7 was under 0.1 µM; against human TLR8 it was under 0.1 µM; against human TLR9, 1 to 50 µM.
Turning to `CC(C)c1c(-c2nc3c(s2)CNCC3)[nH]c2ccc(C3CCNCC3)cc12` [Example 208, 2-(3-isopropyl-5-(piperidin-4-yl)-1H-indol-2-yl)-4,5,6,7-tetrahydrothiazolo[5,4-c]pyridine], the IC50 was 1 to 50 µM against human TLR7, 1 to 50 µM on human TLR8 and under 0.1 µM against human TLR9.
For the molecule `CNC(=O)CN1CCC(c2ccc3[nH]c(-c4ccc(C)n5ncnc45)c(C(C)C)c3c2)CC1` [Example 386, 2-(4-(3-isopropyl-2-(5-methyl-[1,2,4]triazolo[1,5-a]pyridin-8-yl)-1H-indol-5-yl)piperidin-1-yl)-N-methylacetamide], the IC50 against human TLR7 is under 0.1 µM; against human TLR8 it was 0.1 to 1 µM; against human TLR9, 1 to 50 µM.
